Experimental data reported in US20070264659A1, “LUNG CANCER BIOMARKER DISCOVERY” (priority 2006, published 2007).

Test system: lung cancer cell lines A549, NCI-H146 and NCI-H358
Assay: Reactivation of 20 identified genes by treatment of demethylating agent (gene expression)
Assay type: cell-based
Details: lung cancer cells treated with DAC compared with untreated cells; FIG. 4B
Method: Separately, lung cancer cell lines such as A549, NCI-H146 and NCI-H358 are treated with a demethylating agent DAC and assayed for reactivation of genes that are normally repressed in tumor cells. Overlapping genes between the tumor suppressed gene set and the demethylation reactivated gene set are considered to be candidate genes for lung cancer biomarkers. One hundred six (106) such overlapping genes were found (FIG. 1). Methylation sensitive enzyme/nucleic acid sequence based amplification analysis such as Hpa II Mspl enzyme digestion/PCR (or enzyme digestion post-PCR) further removed a few other genes that were not methylated in any of the lung cancer cell lines. To further confirm biochemically that the candidate gene was indeed methylated in tumor cells, bisulfite sequencing assays were conducted and methylation of the final 20 genes was verified.
Gene expression profiles of the 20 genes were created. The expression level of the 20 genes was measured in lung cancer cell lines treated with DAC (FIG. 4B). Methylation status of the genes was also measured using methylation sensitive enzyme/nucleic acid sequence based amplification analysis such as Hpa II/MspI enzyme digestion/PCR (or enzyme digestion post-PCR) method on lung cancer cell lines and the results for the 20 genes is shown in FIG. 4A. The identified genes are not methylated in normal cells. […]

Nc1ncn([C@H]2C[C@H](O)[C@@H](CO)O2)c(=O)n1 [DAC, 5 aza 2′-deoxycytidine]
gene expression of the 20 identified genes in lung cancer cells treated with demethylating agent: reactivated
